Source: patent US12414924B2 (Duke University, priority 2016, dated 2025)
Numbering of substitutions follows the chain as printed. Read-outs that look alike come from different tables or passages of the source.

Tests used:
[1] = biological target: T1, wild-type (WT) ERα (Homo sapiens, UniProt P03372); experiment: ERE-luciferase reporter gene assay in Caov2 cells, wild-type receptor; format: cell-based; settings: Caov2, in presence of 1 nM 17-β estradiol, 24 h
T1 construct: expressed in transfected cells; host or cells: Caov2 ovarian carcinoma cells; SKBR3 breast adenocarcinoma cells
T1 sequence (P03372 1-595): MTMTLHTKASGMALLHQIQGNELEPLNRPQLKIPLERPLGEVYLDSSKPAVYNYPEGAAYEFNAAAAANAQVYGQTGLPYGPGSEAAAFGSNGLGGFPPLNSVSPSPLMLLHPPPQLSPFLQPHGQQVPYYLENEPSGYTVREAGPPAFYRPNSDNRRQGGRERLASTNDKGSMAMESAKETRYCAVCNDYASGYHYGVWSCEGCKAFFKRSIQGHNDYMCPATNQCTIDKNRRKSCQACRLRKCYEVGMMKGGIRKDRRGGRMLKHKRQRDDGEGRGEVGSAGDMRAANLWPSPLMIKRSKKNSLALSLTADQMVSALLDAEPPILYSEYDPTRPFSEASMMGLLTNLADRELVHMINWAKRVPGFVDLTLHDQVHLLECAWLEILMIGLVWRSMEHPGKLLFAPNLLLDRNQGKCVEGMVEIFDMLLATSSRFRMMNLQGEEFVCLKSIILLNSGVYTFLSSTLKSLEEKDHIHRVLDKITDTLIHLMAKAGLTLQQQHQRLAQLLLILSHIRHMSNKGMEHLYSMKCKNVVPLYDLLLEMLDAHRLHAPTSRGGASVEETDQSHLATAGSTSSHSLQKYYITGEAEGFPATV
Experimental: (§1) ExSite mutagenesis was performed using the corresponding primers as summarized in Table 1 below on a pENTR2B ERα WT construct using Pfu ultra taq polymerase. The primers were PNK phosphorylated. Following PCR amplification, the products were digested with DpnI at 37° C. for 1 hr, followed by overnight ligation at 16° C. Ligated products were transformed into DH5α bacterial cells and grown on kanamycin resistant plates. The pENTR clones were verified by sequencing and then swapped into the pcDNA-DEST vector using the Gateway system (Invitrogen) for expression analysis.
(§2) Caov2 ovarian carcinoma cells were grown in RPMI-1640 media (Gibco) supplemented with 8% Fetal Bovine Serum (FBS), Sodium Pyruvate (NaPyr) and non-essential amino acids (NEAA) and passaged every 2-3 days. SKBR3 breast adenocarcinoma cells were grown in DMEM media (Gibco) supplemented with 8% Fetal Bovine Serum (FBS), Sodium Pyruvate (NaPyr) and non-essential amino acids (NEAA) and passaged every 2-3 days. Cells were switched into a phenol-red free RPMI-1640 media supplemented with 8% charcoal stripped fetal bovine serum (CFS), NaPyr, and NEAA one day before plating for experiment. Cells were then plated in 96-well plates for experiment in the phenol red-free media an additional day before transfection.
(§3) The plots include data from five independent experiments and each value is an average of triplicates from each experiment. […]

[2] = biological target: T2, ERα LBD mutant Y537N (Homo sapiens, UniProt P03372, Y537N); experiment: ERE-luciferase reporter gene assay in Caov2 cells, Y537N mutant receptor; format: cell-based; settings: Caov2, in presence of 1 nM 17-β estradiol, 24 h
T2 construct: expressed in transfected cells; host or cells: Caov2 ovarian carcinoma cells; SKBR3 breast adenocarcinoma cells
T2 sequence (P03372 1-595 Y537N): T1 sequence (P03372 1-595) with Y537N
Experimental: as §1, §2, §3

[3] = biological target: T3, ERα LBD mutant Y537C (Homo sapiens, UniProt P03372, Y537C); experiment: ERE-luciferase reporter gene assay in Caov2 cells, Y537C mutant receptor; format: cell-based; settings: Caov2, in presence of 1 nM 17-β estradiol, 24 h
T3 construct: expressed in transfected cells; host or cells: Caov2 ovarian carcinoma cells; SKBR3 breast adenocarcinoma cells
T3 sequence (P03372 1-595 Y537C): T1 sequence (P03372 1-595) with Y537C
Experimental: as §1, §2, §3

[4] = biological target: T1, wild-type (WT) ERα; experiment: ERE-luciferase reporter gene assay in SKBR3 cells, wild-type receptor; format: cell-based; settings: SKBR3, in presence of 1 nM 17-β estradiol, 24 h
Experimental: as §1, §2, §3

[5] = biological target: T3, ERα LBD mutant Y537C; experiment: ERE-luciferase reporter gene assay in SKBR3 cells, Y537C mutant receptor; format: cell-based; settings: SKBR3, in presence of 1 nM 17-β estradiol, 24 h
Experimental: as §1, §2, §3

[6] = Reported Cmax in blood at doses used in prior clinical trials; format: in vivo; settings: human, read-out: Converted (M) Cmax
Text: See Maximov et al., Current ClinicalPharmacology 8(2): 135-155 (2013). […] See Assessment Report for Fablyn, 2009 (EMA). […] See Gardner et al., J Clin Pharmacol 46(1): 52-58 (2006).

[7] = PEARL trial, cited from earlier work

IC90 [1]: 0.00668 nM
IC90 [2]: 0.745 nM
IC90 [3]: 0.204 nM
IC90 [4]: 3.3 nM
IC90 [5]: 5.9 nM
Cmax ([6]; 0.5 mg dose): 9e-09 M
Cmax ([6]; 1 mg dose): 1.55e-08 M
SMILES: Oc1ccc2c(c1)CC[C@H](c1ccccc1)[C@@H]2c1ccc(OCCN2CCCC2)cc1 [Lasofoxifene]
risk of osteoporosis ([7]; placebo-controlled): reduce the risk of osteoporosis
risk of breast cancer ([7]; post-menopausal women with osteoporosis): reduced the risk of breast cancer in post-menopausal women with osteoporosis
